Where “and” joins values, the source holds several entries; their conditions need not be identical. Identical values can stand only once.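 Exposure lasted 48 hours, with cells grown in 96-well plates and compounds tested at five concentrations. GI50 = concentration required for 50% inhibition of growth. Definition used: TGI = concentration required for complete inhibition of growth.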
Columns and labels:
Assay in all cases: NCI anticancer screen, dose series, 48 h
[1] = tested on: SF-295 CNS
[2] = tested on: COLO 205 colon
[3] = tested on: RPMI-8226 leukemia
[4] = tested on: SK-MEL-28 melanoma
[5] = tested on: PC-3 prostate
[6] = tested on: A498 renal
[7] = tested on: HT29 colon
[8] = tested on: SK-MEL-2 melanoma
[9] = tested on: A549 NSCLC
[10] = tested on: CCRF-CEM leukemia

Structure (SMILES) | GI50 [1] | TGI [1] | GI50 [2] | TGI [2] | GI50 [3] | TGI [3] | GI50 [4] | TGI [4] | GI50 [5] | TGI [5] | GI50 [6] | TGI [6] | GI50 [7] | TGI [7] | GI50 [8] | TGI [8] | GI50 [9] | TGI [9] | TGI [10] | GI50 [10]
Fc1ccc(Oc2nccc(-c3c(-c4ccc(F)cc4)ncn3C3CCNCC3)n2)cc1 | > 25 µM | > 25 µM | > 25 µM | > 25 µM | > 25 µM | > 25 µM | > 25 µM | > 25 µM | > 25 µM | > 25 µM | > 25 µM | > 25 µM | 14.7 µM | > 25 µM | > 25 µM | > 25 µM | > 25 µM | > 25 µM | – | –
COC1/C(=C\C(=O)OC(C)(C)C)c2ccccc2N1C(C)=O (centres undefined) | – | > 100 µM | – | > 100 µM | – | > 100 µM | – | > 100 µM | – | – | – | > 100 µM | – | > 100 µM | – | > 100 µM | – | > 100 µM | > 100 µM | –
CC1(CO)OC1COCc1ccccc1 (centres undefined) | – | > 100 µM | – | > 100 µM | – | > 100 µM | – | – | – | – | – | – | – | > 100 µM | – | > 100 µM | – | > 100 µM | > 100 µM | –
Nc1nc(Nc2ccc3c(c2)CC[C@@H](N2CCCC2)CC3)nn1-c1cc2c(nn1)-c1ccccc1CCC2 | 1.88 µM | 3.51 µM | – | – | – | – | 1.77 µM | 3.27 µM | – | – | 0.0249 µM | 1.44 µM | 1.08 µM | 4.01 µM | 1.93 µM | 3.89 µM | 1.63 µM | 3.57 µM | 2.53 µM | 0.478 µM
Cc1nc2c(=O)[nH]c(=O)n(C)c2[nH]c1=O | – | – | – | > 100 µM | – | > 100 µM | – | > 100 µM | – | – | – | > 100 µM | – | > 100 µM | – | > 100 µM | – | > 100 µM | – | –
O=C(Nc1ccc(-n2cc(-c3ccncc3)c(-c3ccc(Cl)c(O)c3)n2)cc1)Nc1cc(C(F)(F)F)cc(C(F)(F)F)c1 | 1.47 µM | 3.08 µM | 1.2 µM | 2.81 µM | – | – | 2.01 µM | 4.34 µM | 2.05 µM | 6.1 µM | 1.56 µM | 5.39 µM | 1.95 µM | 3.74 µM | 1.8 µM | 3.45 µM | 1.93 µM | 4.3 µM | – | –
O=C(O)c1c2c(c(C(=O)O)c3ccccc13)-c1ccccc1-2 | – | > 100 µM | – | > 100 µM | – | > 100 µM | – | > 100 µM | – | – | – | > 100 µM | – | > 100 µM | – | 97.1 µM | – | > 100 µM | > 100 µM | –
CC(=O)OCC1OC(OC2CC3C(C)(C)C(OC(C)=O)CC[C@]3(C)C3CCC45CC4(CC[C@H]5C(C)CC(O)[C@@H](O)C(C)(C)O)[C@]23C)C(O)C(O)C1O (some centres undefined) | 4.41 µM | 14.2 µM and 14.3 µM | 1.93 µM | 14 µM and 3.95 µM | 2.09 µM | 6.74 µM and 11.6 µM | 5.21 µM | 13.7 µM and 17.8 µM | – | – | 19.6 µM | 13.2 µM and 35.6 µM | 3.37 µM | 14.3 µM and 10.6 µM | 2.87 µM | 16.8 µM and 7.36 µM | 19.9 µM | 14.2 µM and 35 µM | 14.8 µM and 15.4 µM | 4.07 µM
COc1cc2c(c(OC)c1OC)-c1ccc(SC)c(=O)cc1[C@@H](NC(=O)c1ccc(OC(C)=O)cc1)CC2 | – | – | – | 0.0405 µM | – | – | 15 µM | 60 µM | – | – | – | 0.0779 µM and 0.0202 µM | – | 0.0653 µM | – | – | – | > 100 µM | > 100 µM | –
NCCCN(CCCN)CCCNCc1c2ccccc2c(CNCCCN(CCCN)CCCN)c2ccccc12 | – | 27.8 µM | – | 22.5 µM | – | 19 µM | – | 21.9 µM | – | – | – | 60.2 µM | – | 37.5 µM | – | 54.9 µM | – | > 100 µM | > 100 µM | –
COc1ccc(C2S/C(=C\c3cc(OC)c(OC)c(OC)c3)C(=O)N2NC(=O)Cc2ccccc2)cc1 (centres undefined) | – | > 100 µM | – | > 100 µM | – | > 100 µM | – | > 100 µM | – | – | – | – | – | > 100 µM | – | > 100 µM | – | > 100 µM | > 100 µM | –
COC(=O)COc1ccc(/C=C2\N=C(c3ccccc3)N(c3cc(C(F)(F)F)ccc3Cl)C2=O)cc1 | > 100 µM | > 100 µM | 54.4 µM | > 100 µM | 19 µM | 46.1 µM | > 100 µM | > 100 µM | 44.8 µM | > 100 µM | – | – | 97.1 µM | > 100 µM | 83.5 µM | > 100 µM | > 100 µM | > 100 µM | – | –
C[C@@H]1O[C@@H](O[C@@H]2[C@@H](O)[C@H](OCCc3ccc(O)c(O)c3)O[C@H](COC(=O)/C=C/c3ccc(O)c(O)c3)[C@H]2O)[C@H](O)[C@H](O)[C@H]1O | > 100 µM | > 100 µM | > 100 µM | > 100 µM | 13.7 µM | 43.4 µM | > 100 µM | > 100 µM | 0.524 µM | > 100 µM | – | – | – | – | > 100 µM | > 100 µM | > 100 µM | > 100 µM | – | –
O=C(/C=C/C=C/c1ccccc1)CCc1ccccc1 | – | > 100 µM | – | > 100 µM | – | – | – | – | – | > 100 µM | – | > 100 µM | – | > 100 µM | – | > 100 µM | – | > 100 µM | > 100 µM | –
O=C(CNC(=O)OCc1ccccc1)Oc1ccccc1 | – | > 100 µM | – | > 100 µM | – | > 100 µM | – | > 100 µM | – | – | – | > 100 µM | – | > 100 µM | – | > 100 µM | – | > 100 µM | > 100 µM | –
COc1ccc(C(=O)C(c2ccc(OC)cc2)C2(O)C(=O)Nc3c(C)cc(Cl)cc32)cc1 (centres undefined) | – | > 100 µM | – | > 100 µM | – | 80.4 µM | – | > 100 µM | – | – | – | > 100 µM | – | > 100 µM | – | > 100 µM | – | > 100 µM | 47.7 µM | –
CCOC(=O)/C(=C\c1ccc(OCc2ccccc2)c(OC)c1)C(=O)c1ccccc1 | – | 46.8 µM | – | 99.2 µM | – | 86.5 µM | – | 30.4 µM | – | – | – | – | – | – | – | 40.7 µM | – | > 10 µM | 58.5 µM | –
C=CC[C@H]1C[C@@]2(C)OC[C@H](C(C)C)N2C1=O | – | > 100 µM | – | > 100 µM | – | > 100 µM | – | > 100 µM | – | – | – | > 100 µM | – | > 100 µM | – | > 100 µM | – | > 100 µM | > 100 µM | –
CC1Cc2c(N)nc(NN)nc2NC1=O (centres undefined) | – | > 100 µM | – | > 100 µM | – | > 100 µM | – | > 100 µM | – | – | – | – | – | > 100 µM | – | – | – | > 100 µM | > 100 µM | –
S=c1nc(Oc2ccc(Cl)c(Cl)c2)[nH]c(=S)[nH]1 | – | > 100 µM | – | > 60.4 µM | – | 51.5 µM | – | > 92.5 µM | – | – | – | 77.6 µM | – | > 89.7 µM | – | – | – | 61.4 µM | > 87.5 µM | –

Source: PubChem BioAssay (NCI)
